{"source": "patent US20180333538A1", "about": "“INJECTION APPARATUS” (Daicel Corporation, priority 2015, published 2018)", "tested_on": "intradermal layer which is skin tissue of the rabbit in vivo", "conditions": "100 μl intradermal", "procedure": "Moreover, an object of the following experimental conditions is to confirm, when an inflammatory substance is injected to the intradermal layer which is skin tissue of the rabbit in vivo, a presence or absence of an inflammatory response (formation of erythema and eschar, and formation of edema) for each elapsed time (after 24 hours, 48 hours, and 72 hours) . In addition, the injection of an injection solution with the needled injector was performed at a constant pressurization rate.\n16-week-old male Std: JW/CSK rabbit, already shaved and smooth skin-verified, was used.\nAn aqueous solution of the following inflammatory substance was used as the dosing liquid and the injection solution.\nInflammatory substance: acetic acid, diluted to a predetermined concentration with distilled water, dose 100 μl\nDefinitions of numerical values representing the experimental results in the tables with respect to each of erythema and eschar formation and edema formation are as follows.\n1 Very slight erythema (barely perceptible erythema)\n2 Slight erythema (clearly perceptible erythema)\n3 Moderate to severe erythema\n4 Severe erythema to eschar formations\n1 Very slight edema (barely perceptible edema)\n2 Slight edema (edema with edges perceptible due to definite raising)\n3 Moderate edema (raised approximately 1 mm)\n4 Severe edema (raised 1 mm or more and extending beyond the area of exposure)", "key": {"[1]": {"conditions": "Comparative example (needled injector), acetic acid 0.25%, 24 h"}, "[2]": {"conditions": "Comparative example (needled injector), acetic acid 0.25%, 48 h"}, "[3]": {"conditions": "Comparative example (needled injector), acetic acid 0.25%, 72 h"}, "[4]": {"conditions": "Comparative example (needled injector), acetic acid 0.5%, 24 h"}, "[5]": {"conditions": "Comparative example (needled injector), acetic acid 0.5%, 48 h"}, "[6]": {"conditions": "Comparative example (needled injector), acetic acid 0.5%, 72 h"}, "[7]": {"conditions": "Comparative example (needled injector), acetic acid 1.0%, 24 h"}, "[8]": {"conditions": "Comparative example (needled injector), acetic acid 1.0%, 48 h"}, "[9]": {"conditions": "Comparative example (needled injector), acetic acid 1.0%, 72 h"}, "[10]": {"conditions": "Comparative example (needled injector), acetic acid 1.5%, 24 h"}, "[11]": {"conditions": "Comparative example (needled injector), acetic acid 1.5%, 48 h"}, "[12]": {"conditions": "Comparative example (needled injector), acetic acid 1.5%, 72 h"}, "[13]": {"conditions": "Comparative example (needled injector), acetic acid 2.0%, 24 h"}, "[14]": {"conditions": "Comparative example (needled injector), acetic acid 2.0%, 48 h"}, "[15]": {"conditions": "Comparative example (needled injector), acetic acid 2.0%, 72 h"}, "[16]": {"conditions": "Injector 1, acetic acid 0.25%, 24 h"}, "[17]": {"conditions": "Injector 1, acetic acid 0.25%, 48 h"}, "[18]": {"conditions": "Injector 1, acetic acid 0.25%, 72 h"}, "[19]": {"conditions": "Injector 1, acetic acid 0.5%, 24 h"}, "[20]": {"conditions": "Injector 1, acetic acid 0.5%, 48 h"}, "[21]": {"conditions": "Injector 1, acetic acid 0.5%, 72 h"}, "[22]": {"conditions": "Injector 1, acetic acid 1.0%, 24 h"}, "[23]": {"conditions": "Injector 1, acetic acid 1.0%, 48 h"}, "[24]": {"conditions": "Injector 1, acetic acid 1.0%, 72 h"}, "[25]": {"conditions": "Injector 1, acetic acid 1.5%, 24 h"}, "[26]": {"conditions": "Injector 1, acetic acid 1.5%, 48 h"}, "[27]": {"conditions": "Injector 1, acetic acid 1.5%, 72 h"}, "[28]": {"conditions": "Injector 1, acetic acid 2.0%, 24 h"}, "[29]": {"conditions": "Injector 1, acetic acid 2.0%, 48 h"}, "[30]": {"conditions": "Injector 1, acetic acid 2.0%, 72 h"}}, "note": "Where two headings read alike, the source gives them in different places.", "data": [{"compound": "CC(=O)O", "note": "[Acetic acid, acetic acid]", "values": [{"measurement": "Edema", "setting": "[1]", "value": 0}, {"measurement": "Erythema etc.", "setting": "[1]", "value": 1}, {"measurement": "Edema", "setting": "[2]", "value": 0}, {"measurement": "Erythema etc.", "setting": "[2]", "value": 1}, {"measurement": "Edema", "setting": "[3]", "value": 0}, {"measurement": "Erythema etc.", "setting": "[3]", "value": 1}, {"measurement": "Edema", "setting": "[4]", "value": 0}, {"measurement": "Erythema etc.", "setting": "[4]", "value": 1}, {"measurement": "Edema", "setting": "[5]", "value": 0}, {"measurement": "Erythema etc.", "setting": "[5]", "value": 1}, {"measurement": "Edema", "setting": "[6]", "value": 0}, {"measurement": "Erythema etc.", "setting": "[6]", "value": 1}, {"measurement": "Edema", "setting": "[7]", "value": 1}, {"measurement": "Erythema etc.", "setting": "[7]", "value": 1}, {"measurement": "Edema", "setting": "[8]", "value": 1}, {"measurement": "Erythema etc.", "setting": "[8]", "value": 1}, {"measurement": "Edema", "setting": "[9]", "value": 1}, {"measurement": "Erythema etc.", "setting": "[9]", "value": 1}, {"measurement": "Edema", "setting": "[10]", "value": 2}, {"measurement": "Erythema etc.", "setting": "[10]", "value": 1}, {"measurement": "Edema", "setting": "[11]", "value": 2}, {"measurement": "Erythema etc.", "setting": "[11]", "value": 1}, {"measurement": "Edema", "setting": "[12]", "value": 2}, {"measurement": "Erythema etc.", "setting": "[12]", "value": 1}, {"measurement": "Edema", "setting": "[13]", "value": 3}, {"measurement": "Erythema etc.", "setting": "[13]", "value": 1}, {"measurement": "Edema", "setting": "[14]", "value": 3}, {"measurement": "Erythema etc.", "setting": "[14]", "value": 1}, {"measurement": "Edema", "setting": "[15]", "value": 2}, {"measurement": "Erythema etc.", "setting": "[15]", "value": 1}, {"measurement": "Edema", "setting": "[16]", "value": 0}, {"measurement": "Erythema etc.", "setting": "[16]", "value": 1}, {"measurement": "Edema", "setting": "[17]", "value": 0}, {"measurement": "Erythema etc.", "setting": "[17]", "value": 1}, {"measurement": "Edema", "setting": "[18]", "value": 0}, {"measurement": "Erythema etc.", "setting": "[18]", "value": 1}, {"measurement": "Edema", "setting": "[19]", "value": 0}, {"measurement": "Erythema etc.", "setting": "[19]", "value": 1}, {"measurement": "Edema", "setting": "[20]", "value": 0}, {"measurement": "Erythema etc.", "setting": "[20]", "value": 1}, {"measurement": "Edema", "setting": "[21]", "value": 0}, {"measurement": "Erythema etc.", "setting": "[21]", "value": 1}, {"measurement": "Edema", "setting": "[22]", "value": 0}, {"measurement": "Erythema etc.", "setting": "[22]", "value": 1}, {"measurement": "Edema", "setting": "[23]", "value": 0}, {"measurement": "Erythema etc.", "setting": "[23]", "value": 1}, {"measurement": "Edema", "setting": "[24]", "value": 0}, {"measurement": "Erythema etc.", "setting": "[24]", "value": 1}, {"measurement": "Edema", "setting": "[25]", "value": 0}, {"measurement": "Erythema etc.", "setting": "[25]", "value": 1}, {"measurement": "Edema", "setting": "[26]", "value": 0}, {"measurement": "Erythema etc.", "setting": "[26]", "value": 1}, {"measurement": "Edema", "setting": "[27]", "value": 0}, {"measurement": "Erythema etc.", "setting": "[27]", "value": 1}, {"measurement": "Edema", "setting": "[28]", "value": 1}, {"measurement": "Erythema etc.", "setting": "[28]", "value": 1}, {"measurement": "Edema", "setting": "[29]", "value": 1}, {"measurement": "Erythema etc.", "setting": "[29]", "value": 1}, {"measurement": "Edema", "setting": "[30]", "value": 1}, {"measurement": "Erythema etc.", "setting": "[30]", "value": 1}]}]}
